This is an account of results in patent publication US9156796B2, “Benzoimidazole-carboxylic acid amide derivatives as APJ receptor modulators” (SANOFI, priority 2013, dated 2015).

One experiment deals with T1, human apelin receptor (Homo sapiens, UniProt P35414).
T1 construct: expressed in transfected cells
T1 sequence (P35414 1-380): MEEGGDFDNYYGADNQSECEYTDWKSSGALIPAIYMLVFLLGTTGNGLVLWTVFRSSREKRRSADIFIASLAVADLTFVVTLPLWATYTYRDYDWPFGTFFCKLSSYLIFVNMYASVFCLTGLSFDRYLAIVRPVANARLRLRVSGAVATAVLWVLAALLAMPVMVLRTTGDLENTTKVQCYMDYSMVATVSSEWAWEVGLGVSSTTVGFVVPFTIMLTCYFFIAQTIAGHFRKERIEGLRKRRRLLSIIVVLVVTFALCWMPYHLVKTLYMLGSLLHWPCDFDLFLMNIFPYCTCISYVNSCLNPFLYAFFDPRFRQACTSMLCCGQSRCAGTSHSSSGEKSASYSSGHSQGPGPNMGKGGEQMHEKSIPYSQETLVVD
Description: Determination of agonism on the human apelin receptor by a calcium fluorescence assay (FLIPR). The class given is cell-based. To be noted: EC50 (APJ agonism), HEK293 cells stably transfected with human apelin receptor and Giaq protein, Fluo-4 calcium fluorescence. The text has this:
Determination of Agonism on the Human Apelin Receptor by a Calcium Fluorescence Assay (FLIPR)
The assay is based on the detection of intracellular calcium changes detected by the selective, calcium-chelating dye Fluo-4 (Molecular Probes). A large fluorescence intensity increase is observed upon calcium association with Fluo-4. The dye is delivered to the cell interior using an acetoxymethylester form of Fluo-4, where the intracellular esterase activity results in the charged species being released and trapped within the cytoplasm of the cell. […] By co-expressing the human apelin receptor and a promiscuous Giaq protein, agonism of the apelin receptor couples to phospholipase-C resulting in intracellular calcium mobilization.
The HEK293 cells were stably transfected with the human apelin receptor and the Giaq protein. Cells were selected and maintained in a log phase of growth at 37° and 5% CO2 in the Iscove's minimal essential medium, 10% fetal calf serum, 1× Penicillin-Streptomycin, 400 μg/mL G418. One day prior the assay, cells were passaged by accutase and plated at a density of 50,000 cells/well onto a 96-well plates with black border but clear bottom (Costar, cat#3904) in a final volume of 200 μl growth medium.
In order to load the cells the next day with the calcium-sensitive dye, growth medium was carefully replaced by dye solution (100 μl/well) containing Fluo-4 (4 μM) in basic measurement buffer (135 mM NaCl, 5 mM KCl, 1 mM magnesium sulphate, 5 mM glucose, 20 mM Hepes, 2.5 mM probenecid; adjusted to pH 7.4). Cells were incubated for 1 h at 37° C., and then washed 3× with buffer containing no dye. The washer was programmed to leave a remaining volume of 150 μl after the third wash in the plate.
During the dye-loading of the cells, a serial compound dilution was performed in a separate 96-well plate with overall 4× increased concentrations. Small aliquots of DMSO stock solutions of the compounds (10 mM in 100% DMSO were aliquoted into 150 μl buffer in the first rows of the 96-well plates, and then serially diluted by a factor of 1:3 transferring each time 30 μl to the next rows already containing 60 μl buffer. All compounds were tested in a least 7 concentrations, each condition was performed in triplicates. As comparator, we used freshly prepared apelin-13 solutions, for which also a concentration-response curve was determined at each measurement day. The compound plate was incubated for 10 min after the final dilutions steps at 37° C. before transferring the dye-loaded cell plate and the compound plate into a FLIPR Tetra reader (Molecular Devices). Measurement within this reader started by pipetting the agonist solution (50 μl) on the cell plate. Overall perform 60 reads were performed with an interval of 2 sec. The maximum of the fluorescence transient was used to calculate the agonistic response of the cells. In order to normalize this response, which may vary from plate to plate we set the maximum fluorescence achieved by 1 μM apelin-13 on this plate as 100%.
EC-50 values for apelin-13 and the apelin receptor compounds described in this patent were determined by standard algorithms using a specific software package.
Take `CCCC[C@@H](CO)NC(=O)c1ccc2c(c1)nc(CC1CCCC1)n2C(CC)CC` [Example 184, 2-Cyclopentylmethyl-1-(1-ethyl-propyl)-1H-benzoimidazole-5-carboxylic acid ((S)-1-hydroxymethyl-pentyl)-amide]: the EC50 (commonly the concentration that produces a half-maximal response) came out at 2900 nM.

Still in this experiment, the particulars now being: HEK293 cells stably transfected with human apelin receptor and Giaq protein, Fluo-4 calcium fluorescence, read-out: EC50 (APJ agonism).
On to `CCC(CC)n1c(Cc2cccs2)nc2cc(C(=O)N[C@@H](CC(C)C)C(=O)N3CCN(Cc4ccc5c(c4)OCO5)CC3)ccc21` [Example 311, 1-(1-Ethyl-propyl)-2-thiophen-2-ylmethyl-1H-benzoimidazole-5-carboxylic acid [(S)-1-(4-benzo[1,3]dioxol-5-ylmethyl-piperazine-1-carbonyl)-3-methyl-butyl]-amide], for which the EC50 came to 21200 nM. Still for that read-out and setting: as for `CCC(CC)n1c(Cc2cccs2)nc2cc(C(=O)N[C@@H](CC(C)C)C(=O)NC3CCN(CCc4ccccc4)CC3)ccc21` [Example 338, 1-(1-Ethyl-propyl)-2-thiophen-2-ylmethyl-1H-benzoimidazole-5-carboxylic acid [(S)-3-methyl-1-(1-phenethyl-piperidin-4-ylcarbamoyl)-butyl]-amide], the figure is 1590 nM. Still for that read-out and setting: as for `CCC(CC)n1c(Cc2cccs2)nc2cc(C(=O)N[C@@H](CC(C)C)C(=O)N3CC[C@H](N(C)C)C3)ccc21` [Example 322, 1-(1-Ethyl-propyl)-2-thiophen-2-ylmethyl-1H-benzoimidazole-5-carboxylic acid [(S)-1-((S)-3-dimethylamino-pyrrolidine-1-carbonyl)-3-methyl-butyl]-amide], the figure is 244 nM; as for `CCCC(CCO)NC(=O)c1ccc2c(c1)nc(Cc1cccs1)n2C(CC)CC` (single isomer, unassigned) [Example 471], 5020 nM; as for `CCC(CC)n1c(Cc2cccs2)nc2cc(C(=O)N[C@@H](CC(C)C)C(=O)NCCCOCc3ccccc3)ccc21` [Example 389, 1-(1-Ethyl-propyl)-2-thiophen-2-ylmethyl-1H-benzoimidazole-5-carboxylic acid [(S)-1-(3-benzyloxy-propylcarbamoyl)-3-methyl-butyl]-amide], 17100 nM.

`CCC(CC)n1c(Cc2cccs2)nc2cc(C(=O)N[C@@H](CC(C)C)C(=O)N[C@@H](C)COC)ccc21` [Example 370, 1-(1-Ethyl-propyl)-2-thiophen-2-ylmethyl-1H-benzoimidazole-5-carboxylic acid [(S)-1-((S)-2-methoxy-1-methyl-ethylcarbamoyl)-3-methyl-butyl]-amide]: the concentration for a half-maximal effect (EC50) came out at 2850 nM. On to `CCC(CC)n1c(Cc2cccs2)nc2cc(C(=O)N[C@@H](CC(C)C)C(=O)NCCCN3CC(C)CC(C)C3)ccc21` (stereo partly drawn) [Example 332, 1-(1-Ethyl-propyl)-2-thiophen-2-ylmethyl-1H-benzoimidazole-5-carboxylic acid {(S)-1-[3-(3,5-dimethyl-piperidin-1-yl)-propylcarbamoyl]-3-methyl-butyl}-amide], for which the 50% effective concentration (EC50) was 692 nM. On to `CCC(CC)n1c(Cc2cccs2)nc2cc(C(=O)N[C@@H](CC(C)C)C(=O)N(C)CCCC3CCCO3)ccc21` (stereo partly drawn) [Example 392, 1-(1-Ethyl-propyl)-2-thiophen-2-ylmethyl-1H-benzoimidazole-5-carboxylic acid ((S)-3-methyl-1-{methyl-[3-(tetrahydro-furan-2-yl)-propyl]-carbamoyl}-butyl)-amide], for which the concentration giving a half-maximal response (EC50) is 1380 nM. Still for that read-out and setting: the result for `CCC(CC)n1c(Cc2cccs2)nc2cc(C(=O)N[C@@H](CC(C)C)C(=O)N3CCC(N4CCC(C)CC4)CC3)ccc21` [Example 282, 1-(1-Ethyl-propyl)-2-thiophen-2-ylmethyl-1H-benzoimidazole-5-carboxylic acid [(S)-3-methyl-1-(4-methyl-[1,4′]bipiperidinyl-1′-carbonyl)-butyl]-amide] reads 430 nM; that for `CCC(CC)n1c(Cc2cccs2)nc2cc(C(=O)N[C@@H](CC(C)C)C(=O)N3CCC(O)C3)ccc21` (stereo partly drawn) [Example 407, 1-(1-Ethyl-propyl)-2-thiophen-2-ylmethyl-1H-benzoimidazole-5-carboxylic acid [(S)-1-(3-hydroxy-pyrrolidine-1-carbonyl)-3-methyl-butyl]-amide], 708 nM; that for `CC(C)C[C@H](NC(=O)c1ccc2c(c1)nc(Cc1ccccc1)n2C1CCCCC1C)C(=O)O` (stereo partly drawn) [Example 143, (S)-2-{[2-Benzyl-1-(2-methyl-cyclohexyl)-1H-benzoimidazole-5-carbonyl]-amino}-4-methyl-pentanoic acid], 2450 nM.

`CCC(CC)n1c(Cc2cccs2)nc2cc(C(=O)N[C@@H](CC(C)C)C(=O)NCc3cccc(N(C)C)c3)ccc21` [Example 252, 1-(1-Ethyl-propyl)-2-thiophen-2-ylmethyl-1H-benzoimidazole-5-carboxylic acid [(S)-1-(3-dimethylamino-benzylcarbamoyl)-3-methyl-butyl]-amide]: the half-maximal effective concentration (EC50) was found to be 6990 nM. Regarding `CCC(CC)n1c(Cc2cscn2)nc2cc(C(=O)N[C@H](COC)CC(C)C)ccc21` [Example 206, 1-(1-Ethyl-propyl)-2-thiazol-4-ylmethyl-1H-benzoimidazole-5-carboxylic acid ((S)-1-methoxymethyl-3-methyl-butyl)-amide], the EC50 is 2300 nM. As for `CCC(CC)n1c(Cc2cccs2)nc2cc(C(=O)N[C@@H](CC(C)C)C(=O)NCCOC)ccc21` [Example 268, 1-(1-Ethyl-propyl)-2-thiophen-2-ylmethyl-1H-benzoimidazole-5-carboxylic acid [(S)-1-(2-methoxy-ethylcarbamoyl)-3-methyl-butyl]-amide], the EC50 was determined as 552 nM.

As to `CCC(C)Cn1c(CC2CCCC2)nc2cc(C(=O)N[C@H](CC(=O)O)CC(C)C)ccc21` (stereo partly drawn) [Example 159, (S)-3-{[2-Cyclopentylmethyl-1-(2-methyl-butyl)-1H-benzoimidazole-5-carbonyl]-amino}-5-methyl-hexanoic acid], the 50% effective concentration (EC50) was found to be 15000 nM. As to `CCC(CC)n1c(Cc2cccs2)nc2cc(C(=O)N[C@@H](Cc3ccc(F)cc3)C(=O)O)ccc21` [Example 19, (S)-2-{[1-(1-Ethyl-propyl)-2-thiophen-2-ylmethyl-1H-benzoimidazole-5-carbonyl]-amino}-3-(4-fluoro-phenyl)-propionic acid], the concentration for a half-maximal effect (EC50) worked out at 5030 nM. On the same count and under the same terms, the result for `CCC(CC)n1c(Cc2cccs2)nc2cc(C(=O)N[C@@H](CC(C)C)C(=O)NC[C@@H]3CCCO3)ccc21` [Example 368, 1-(1-Ethyl-propyl)-2-thiophen-2-ylmethyl-1H-benzoimidazole-5-carboxylic acid ((S)-3-methyl-1-{[(S)-1-(tetrahydro-furan-2-yl)methyl]-carbamoyl}-butyl)-amide] reads 1880 nM; that for `CCC(CC)n1c(Cc2cccs2)nc2cc(C(=O)N[C@@H](CC(C)C)C(=O)NCc3ccc(F)cc3)ccc21` [Example 244, 1-(1-Ethyl-propyl)-2-thiophen-2-ylmethyl-1H-benzoimidazole-5-carboxylic acid [(S)-1-(4-fluoro-benzylcarbamoyl)-3-methyl-butyl]-amide], 4280 nM; that for `CC(C)C[C@H](NC(=O)c1ccc2c(c1)nc(Cc1ccoc1)n2C1CCCCC1C)C(=O)O` (stereo partly drawn) [Example 131, (S)-2-{[2-Furan-3-ylmethyl-1-(2-methyl-cyclohexyl)-1H-benzoimidazole-5-carbonyl]-amino}-4-methyl-pentanoic acid], 185 nM. For `CC1CCCCC1n1c(Cc2cccs2)nc2cc(C(=O)N[C@@H](CC3CCCCC3)C(=O)O)ccc21` (single isomer, unassigned) [Example 424], the concentration giving a half-maximal response (EC50) worked out at 389 nM.
